Starred links: 1 amine or outer side, 2 acyl side, 3 side chain; linkers in the order of their positions; H or OH if unused. Positions of bridges follow the written chain, without caps; N, C: chain ends. Non-standard residues stand in square brackets, D forms with d. Residues, ends and D or L forms follow the SMILES beside them. Chains are numbered I, II in the order given. *: point of attachment. X3 = O=C([C@H](CCCNCCCCN[*:3])N[*:1])[*:2]; Phe(4-Cl) = N[C@@H](Cc1ccc(Cl)cc1)C(=O)O; X2 = N=C(N)N[C@@H](CCCCN[*:1])C(=O)[*:2]; isoGln = NC(=O)[C@H](CCC(=O)[*:2])N[*:1]; d(εLys) = N[C@H](CCCCN[*:1])C(=O)[*:2]; εLys = N[C@@H](CCCCN[*:1])C(=O)[*:2]; Glutaryl = O=C(CCCC(=O)[*:2])[*:1]; Aad = N[C@@H](CCCC(=O)O)C(=O)O; Orn = NCCC[C@H](N)C(=O)O; Dab = NCC[C@H](N)C(=O)O; PhAc = O=C(Cc1ccccc1)*
Molecular target: T1, human V1aR (Homo sapiens, UniProt P37288)
T1 construct: expressed in transfected cells
Assay: Agonist activity at vasopressin V1a receptors, cell-based FLIPR calcium assay
Conditions: for Emax: read-out: Efficacy Avg. (%)
In short: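 HEK Flp-In cells stably expressing human V1aR were loaded with Calcium 4 dye plus 2.5 mM probenecid for 1 h at 37 °C, then given half-log compound concentrations (final 0.1% DMSO) on FLIPR Tetra.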

T1 sequence (P37288 whole entry): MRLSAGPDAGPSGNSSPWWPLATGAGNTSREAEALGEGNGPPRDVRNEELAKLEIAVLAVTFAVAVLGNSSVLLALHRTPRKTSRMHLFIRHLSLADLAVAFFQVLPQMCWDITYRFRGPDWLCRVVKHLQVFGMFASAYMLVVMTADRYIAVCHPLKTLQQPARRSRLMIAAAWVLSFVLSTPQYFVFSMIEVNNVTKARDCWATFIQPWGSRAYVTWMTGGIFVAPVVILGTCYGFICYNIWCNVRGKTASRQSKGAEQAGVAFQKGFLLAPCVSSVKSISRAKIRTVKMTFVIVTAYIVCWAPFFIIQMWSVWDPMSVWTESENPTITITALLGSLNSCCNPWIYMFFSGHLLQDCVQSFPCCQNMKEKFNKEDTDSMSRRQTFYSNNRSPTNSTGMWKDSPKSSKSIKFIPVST

Structure (SMILES)	EC50 [nM]	Emax [%]
CC[C@H](C)[C@@H]1NC(=O)[C@H](Cc2ccccc2)NC(=O)[C@@H](N)CSSC[C@@H](C(=O)N2CCC[C@H]2C(=O)N[C@@H](CCCNC(=O)[C@@H](N)CCCCNC(=O)CC[C@H](NC(=O)[C@H](CCCNC(=N)N)NC(=O)[C@@H]2CCCN2C(=O)[C@H](CCCNC(=N)N)NC(=O)[C@H](CC(N)=O)NC(=O)[C@H](CCC(N)=O)NC(=O)[C@H](Cc2ccccc2)NC(=O)[C@H](Cc2ccc(Cl)cc2)NC(=O)Cc2ccccc2)C(N)=O)C(=O)NCC(N)=O)NC(=O)[C@H](CC(N)=O)NC(=O)[C@H](CCC(N)=O)NC1=O [Compound 27] (I: H-CFIQNCP[Orn]G-NH2 / II: PhAc-[Phe(4-Cl)]FQNRPR[isoGln][εLys]; disulfide I:1-I:6; amide I:8-II:C)	1	70
CC[C@H](C)[C@@H]1NC(=O)[C@H](Cc2ccccc2)NC(=O)[C@@H](N)CSSC[C@@H](C(=O)N2CCC[C@H]2C(=O)N[C@@H](CCNC(=O)[C@H](CCCCNC(=O)CC[C@H](NC(=O)[C@H](CCCNC(=N)N)NC(=O)[C@@H]2CCCN2C(=O)[C@H](C)NC(=O)[C@H](CC(N)=O)NC(=O)[C@H](CCC(N)=O)NC(=O)[C@H](Cc2ccccc2)NC(=O)[C@@H](Cc2ccc(OC)cc2)NC(=O)Cc2ccccc2)C(N)=O)NC(=N)N)C(=O)NCC(N)=O)NC(=O)[C@H](CC(N)=O)NC(=O)[C@H](CCC(N)=O)NC1=O [Compound 29] (I: H-CFIQNCP[Dab]G-NH2 / II: PhAc-[dY](Me)FQNAPR[isoGln][X2]; disulfide I:1-I:6 (inferred); amide I:8-II:C (inferred))	1.2	39
CC[C@H](C)[C@@H]1NC(=O)[C@H](Cc2ccccc2)NC(=O)[C@@H](N)CSSC[C@@H](C(=O)N2CCC[C@H]2C(=O)N[C@@H](CCNC(=O)[C@H](N)CCCCNC(=O)CC[C@H](NC(=O)[C@H](CCCNC(=N)N)NC(=O)[C@@H]2CCCN2C(=O)[C@H](CCC(N)=O)NC(=O)[C@H](CC(N)=O)NC(=O)[C@H](CCC(N)=O)NC(=O)[C@H](Cc2ccccc2)NC(=O)[C@@H](Cc2ccc(OC)cc2)NC(=O)Cc2ccccc2)C(N)=O)C(=O)NCC(N)=O)NC(=O)[C@H](CC(N)=O)NC(=O)[C@H](CCCC(N)=O)NC1=O [Compound 61] (I: H-CFI[Aad](NH2)NCP[Dab]G-NH2 / II: PhAc-[dY](Me)FQNQPR[isoGln][d(εLys)]; disulfide I:1-I:6; amide I:8-II:C)	2.5	38
CC[C@H](C)[C@@H]1NC(=O)[C@H](Cc2ccccc2)NC(=O)[C@@H](N)CSSC[C@@H](C(=O)N2CCC[C@H]2C(=O)N[C@@H](CCCNCCCCCNC(=O)CC[C@H](NC(=O)[C@H](CCCNC(=N)N)NC(=O)[C@@H]2CCCN2C(=O)[C@H](CCC(N)=O)NC(=O)[C@H](CC(N)=O)NC(=O)[C@H](CCC(N)=O)NC(=O)[C@H](Cc2ccccc2)NC(=O)[C@@H](Cc2ccc(OC)cc2)NC(=O)Cc2ccccc2)C(N)=O)C(=O)NCC(N)=O)NC(=O)[C@H](CC(N)=O)NC(=O)[C@H](CCC(N)=O)NC1=O [Compound 14]	2.1	37
CC[C@H](C)[C@@H]1NC(=O)[C@H](Cc2ccccc2)NC(=O)[C@@H](N)CSSC[C@@H](C(=O)N2CCC[C@H]2C(=O)N[C@@H](CCCNCCCCNC(=O)CCCC(=O)NCCCC[C@H](NC(=O)[C@H](CCCNC(=N)N)NC(=O)[C@@H]2CCCN2C(=O)[C@H](CCCNC(=N)N)NC(=O)[C@H](CC(N)=O)NC(=O)[C@H](CCC(N)=O)NC(=O)[C@H](Cc2ccccc2)NC(=O)[C@@H](Cc2ccc(OC)cc2)NC(=O)Cc2ccccc2)C(N)=O)C(=O)NCC(N)=O)NC(=O)[C@H](CC(N)=O)NC(=O)[C@H](CCC(N)=O)NC1=O [Compound 3] (I: H-CFIQNCP[X3]G-NH2 / II: PhAc-[dY](Me)FQNRPRK-NH2; disulfide I:1-I:6; linker I:8-II:8 via Glutaryl)	2.9	39

— US20160122386A1, “V1A RECEPTOR AGONISTS” (FERRING B.V., priority 2014, published 2016)
